Common to all, as to test: biochemical
What all share (design): Invitrogen SelectScreen kinase panel, percent inhibition at 1 uM, ATP at Km
What all share (conditions): read-out: Invitrogen KSS %Inh at 1 µM

For one assay, the target named is RPS6KA3 (RSK2) (Homo sapiens, UniProt P51812). In a few lines: (§1)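 Commercial kinase panel screens run with ATP at the Km for each kinase. Compounds tested at 1 µM final concentration; values are % inhibition of phosphorylation relative to control.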
In the next assay the target is MAPK1/ERK2 (Homo sapiens, UniProt P28482). In a few lines:
as §1

A further assay deals with MAPK8 (JNK1) (Homo sapiens, UniProt P45983). In a few lines: as §1
MAPK8 (JNK1), sequence (P45983 whole entry): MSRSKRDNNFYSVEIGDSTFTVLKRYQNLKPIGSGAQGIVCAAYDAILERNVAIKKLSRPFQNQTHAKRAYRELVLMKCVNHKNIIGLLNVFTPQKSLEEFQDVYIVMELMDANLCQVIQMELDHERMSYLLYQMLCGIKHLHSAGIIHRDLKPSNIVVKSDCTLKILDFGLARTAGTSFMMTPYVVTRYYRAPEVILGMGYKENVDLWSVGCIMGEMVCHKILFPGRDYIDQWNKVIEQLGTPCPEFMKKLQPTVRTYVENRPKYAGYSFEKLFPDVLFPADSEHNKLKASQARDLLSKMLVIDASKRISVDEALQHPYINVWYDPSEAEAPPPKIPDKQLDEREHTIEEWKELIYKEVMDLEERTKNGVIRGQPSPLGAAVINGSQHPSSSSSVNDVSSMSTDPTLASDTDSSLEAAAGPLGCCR
Another assay deals with TYRO3 (RSE) (Homo sapiens, UniProt Q06418). In a few lines: as §1
In a further assay the target is MAPK12 (p38 gamma) (Homo sapiens, UniProt P53778). Put shortly: as §1
The target of a further assay is IGF1R (Homo sapiens, UniProt P08069). Put shortly: as §1
A further assay deals with ACVR1B (ALK4) (Homo sapiens, UniProt P36896). In a few lines: as §1
ACVR1B (ALK4), sequence (P36896 whole entry): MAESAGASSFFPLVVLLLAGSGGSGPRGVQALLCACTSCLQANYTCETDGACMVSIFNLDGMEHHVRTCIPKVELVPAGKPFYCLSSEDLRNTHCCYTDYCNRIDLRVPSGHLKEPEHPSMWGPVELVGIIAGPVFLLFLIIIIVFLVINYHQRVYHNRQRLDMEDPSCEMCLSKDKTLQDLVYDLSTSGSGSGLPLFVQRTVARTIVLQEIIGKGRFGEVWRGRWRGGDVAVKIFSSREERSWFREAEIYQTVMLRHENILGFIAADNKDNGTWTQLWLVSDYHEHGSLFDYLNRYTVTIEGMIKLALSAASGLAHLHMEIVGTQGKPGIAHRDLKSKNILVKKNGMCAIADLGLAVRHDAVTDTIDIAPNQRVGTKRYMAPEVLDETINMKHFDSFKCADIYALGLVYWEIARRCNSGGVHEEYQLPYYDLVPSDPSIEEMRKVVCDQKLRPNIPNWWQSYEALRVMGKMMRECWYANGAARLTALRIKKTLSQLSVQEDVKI
For a further assay, the target named is SGK (SGK1) (Homo sapiens, UniProt O00141). Put shortly: as §1
SGK (SGK1), sequence (O00141 whole entry): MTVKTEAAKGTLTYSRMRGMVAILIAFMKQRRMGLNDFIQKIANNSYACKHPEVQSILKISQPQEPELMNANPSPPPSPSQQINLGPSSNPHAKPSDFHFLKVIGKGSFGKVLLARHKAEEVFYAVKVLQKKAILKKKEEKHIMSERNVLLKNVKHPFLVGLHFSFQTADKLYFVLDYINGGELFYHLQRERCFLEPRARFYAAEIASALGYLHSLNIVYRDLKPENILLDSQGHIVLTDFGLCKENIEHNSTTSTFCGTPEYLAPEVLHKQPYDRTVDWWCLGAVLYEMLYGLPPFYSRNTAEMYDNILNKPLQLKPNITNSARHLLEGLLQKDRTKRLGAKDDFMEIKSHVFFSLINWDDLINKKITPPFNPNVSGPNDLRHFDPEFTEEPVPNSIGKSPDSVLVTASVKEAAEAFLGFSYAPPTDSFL
A further assay addresses MAPK9 (JNK2) (Homo sapiens, UniProt P45984). Put shortly:
as §1

In a further assay the target is EGFR (ErbB1) L861Q (Homo sapiens, UniProt P00533, L861Q). In a few lines:
as §1

Another assay deals with MET M1250T (Homo sapiens, UniProt P08581, M1250T). Put shortly:
as §1

For another assay, the target named is SGKL (SGK3) (Homo sapiens, UniProt Q96BR1). Put shortly: as §1
The target of the next assay is NEK7 (Homo sapiens, UniProt Q8TDX7). In a few lines: as §1
In another assay the target is EGFR (ErbB1) (Homo sapiens, UniProt P00533). Put shortly: as §1
The target of another assay is MAPK14 (p38 alpha)** (Homo sapiens, UniProt Q16539). In a few lines:
as §1

In a further assay the target is PKN1 (PRK1) (Homo sapiens, UniProt Q16512). Put shortly:
as §1

In the next assay the target is CHEK2 (CHK2) (Homo sapiens, UniProt O96017). In a few lines:
as §1

The next assay has as its target KIT (Homo sapiens, UniProt P10721). Put shortly:
as §1

A further assay concerns the target PRKD1 (PKC mu) (Homo sapiens, UniProt Q15139). In a few lines:
as §1

In the next assay the target is YES1 (Homo sapiens, UniProt P07947). In a few lines: as §1
In the next assay the target is EPHA2 (Homo sapiens, UniProt P29317). Put shortly:
as §1

The next assay concerns the target EPHB2 (Homo sapiens, UniProt P29323). In a few lines:
as §1

PRKD1 (PKC mu), sequence (Q15139 whole entry): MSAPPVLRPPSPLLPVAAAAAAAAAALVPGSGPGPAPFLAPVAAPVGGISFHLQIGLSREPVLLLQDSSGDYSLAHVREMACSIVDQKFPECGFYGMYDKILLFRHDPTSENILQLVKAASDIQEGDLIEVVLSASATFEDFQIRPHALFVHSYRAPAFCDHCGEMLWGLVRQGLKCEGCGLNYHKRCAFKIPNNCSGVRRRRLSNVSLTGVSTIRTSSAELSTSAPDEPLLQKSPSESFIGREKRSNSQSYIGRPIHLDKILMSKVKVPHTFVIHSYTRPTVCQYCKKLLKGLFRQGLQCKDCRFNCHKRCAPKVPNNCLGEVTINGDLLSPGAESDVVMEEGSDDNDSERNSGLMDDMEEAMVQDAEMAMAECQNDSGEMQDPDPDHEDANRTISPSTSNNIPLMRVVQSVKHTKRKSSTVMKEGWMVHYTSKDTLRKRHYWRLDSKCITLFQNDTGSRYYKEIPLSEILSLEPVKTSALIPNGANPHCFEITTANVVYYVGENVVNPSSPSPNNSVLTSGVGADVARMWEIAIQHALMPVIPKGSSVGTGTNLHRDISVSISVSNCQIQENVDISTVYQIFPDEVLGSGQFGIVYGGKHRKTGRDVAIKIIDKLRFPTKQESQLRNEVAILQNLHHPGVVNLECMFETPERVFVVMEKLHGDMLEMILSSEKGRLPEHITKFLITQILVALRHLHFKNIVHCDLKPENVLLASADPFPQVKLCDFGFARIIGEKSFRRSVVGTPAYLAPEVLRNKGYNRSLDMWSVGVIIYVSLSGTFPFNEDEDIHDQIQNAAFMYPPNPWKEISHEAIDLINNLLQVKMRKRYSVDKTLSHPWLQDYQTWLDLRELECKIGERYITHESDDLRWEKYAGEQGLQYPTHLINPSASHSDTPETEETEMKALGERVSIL
MAPK1/ERK2, sequence (P28482 whole entry): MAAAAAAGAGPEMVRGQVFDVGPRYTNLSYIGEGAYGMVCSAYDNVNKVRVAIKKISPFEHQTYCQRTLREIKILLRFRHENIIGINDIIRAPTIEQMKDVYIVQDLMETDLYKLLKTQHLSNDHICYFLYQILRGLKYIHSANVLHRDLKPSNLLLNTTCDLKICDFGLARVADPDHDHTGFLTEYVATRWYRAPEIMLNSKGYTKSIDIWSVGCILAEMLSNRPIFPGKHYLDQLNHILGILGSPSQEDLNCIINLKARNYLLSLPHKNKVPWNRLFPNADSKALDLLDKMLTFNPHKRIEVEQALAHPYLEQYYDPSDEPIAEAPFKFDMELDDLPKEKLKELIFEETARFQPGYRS
PKN1 (PRK1), sequence (Q16512 whole entry): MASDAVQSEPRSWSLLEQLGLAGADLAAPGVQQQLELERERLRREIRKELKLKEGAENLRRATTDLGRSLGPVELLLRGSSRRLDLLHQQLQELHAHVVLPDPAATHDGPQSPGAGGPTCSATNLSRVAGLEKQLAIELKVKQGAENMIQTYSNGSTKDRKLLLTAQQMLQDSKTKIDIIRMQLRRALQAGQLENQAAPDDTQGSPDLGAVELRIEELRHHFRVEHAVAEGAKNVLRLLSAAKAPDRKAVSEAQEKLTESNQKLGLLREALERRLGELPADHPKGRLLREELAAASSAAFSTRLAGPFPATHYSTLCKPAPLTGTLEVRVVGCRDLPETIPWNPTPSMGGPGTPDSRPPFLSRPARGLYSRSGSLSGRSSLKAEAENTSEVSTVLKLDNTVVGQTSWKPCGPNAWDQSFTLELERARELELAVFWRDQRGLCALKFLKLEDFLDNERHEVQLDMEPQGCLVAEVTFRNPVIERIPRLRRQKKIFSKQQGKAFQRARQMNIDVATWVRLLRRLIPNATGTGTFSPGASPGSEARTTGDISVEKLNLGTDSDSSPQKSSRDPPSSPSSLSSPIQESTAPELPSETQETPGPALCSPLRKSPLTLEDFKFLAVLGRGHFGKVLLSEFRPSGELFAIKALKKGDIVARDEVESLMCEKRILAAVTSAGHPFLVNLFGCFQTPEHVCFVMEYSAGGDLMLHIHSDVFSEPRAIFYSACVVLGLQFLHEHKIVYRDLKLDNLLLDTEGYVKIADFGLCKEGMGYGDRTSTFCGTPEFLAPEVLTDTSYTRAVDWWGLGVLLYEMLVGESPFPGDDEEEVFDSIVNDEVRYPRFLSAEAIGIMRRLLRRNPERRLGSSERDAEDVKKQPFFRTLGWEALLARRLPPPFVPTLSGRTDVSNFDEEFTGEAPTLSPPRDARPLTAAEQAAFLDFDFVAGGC
MET M1250T, sequence (P08581 whole entry M1250T): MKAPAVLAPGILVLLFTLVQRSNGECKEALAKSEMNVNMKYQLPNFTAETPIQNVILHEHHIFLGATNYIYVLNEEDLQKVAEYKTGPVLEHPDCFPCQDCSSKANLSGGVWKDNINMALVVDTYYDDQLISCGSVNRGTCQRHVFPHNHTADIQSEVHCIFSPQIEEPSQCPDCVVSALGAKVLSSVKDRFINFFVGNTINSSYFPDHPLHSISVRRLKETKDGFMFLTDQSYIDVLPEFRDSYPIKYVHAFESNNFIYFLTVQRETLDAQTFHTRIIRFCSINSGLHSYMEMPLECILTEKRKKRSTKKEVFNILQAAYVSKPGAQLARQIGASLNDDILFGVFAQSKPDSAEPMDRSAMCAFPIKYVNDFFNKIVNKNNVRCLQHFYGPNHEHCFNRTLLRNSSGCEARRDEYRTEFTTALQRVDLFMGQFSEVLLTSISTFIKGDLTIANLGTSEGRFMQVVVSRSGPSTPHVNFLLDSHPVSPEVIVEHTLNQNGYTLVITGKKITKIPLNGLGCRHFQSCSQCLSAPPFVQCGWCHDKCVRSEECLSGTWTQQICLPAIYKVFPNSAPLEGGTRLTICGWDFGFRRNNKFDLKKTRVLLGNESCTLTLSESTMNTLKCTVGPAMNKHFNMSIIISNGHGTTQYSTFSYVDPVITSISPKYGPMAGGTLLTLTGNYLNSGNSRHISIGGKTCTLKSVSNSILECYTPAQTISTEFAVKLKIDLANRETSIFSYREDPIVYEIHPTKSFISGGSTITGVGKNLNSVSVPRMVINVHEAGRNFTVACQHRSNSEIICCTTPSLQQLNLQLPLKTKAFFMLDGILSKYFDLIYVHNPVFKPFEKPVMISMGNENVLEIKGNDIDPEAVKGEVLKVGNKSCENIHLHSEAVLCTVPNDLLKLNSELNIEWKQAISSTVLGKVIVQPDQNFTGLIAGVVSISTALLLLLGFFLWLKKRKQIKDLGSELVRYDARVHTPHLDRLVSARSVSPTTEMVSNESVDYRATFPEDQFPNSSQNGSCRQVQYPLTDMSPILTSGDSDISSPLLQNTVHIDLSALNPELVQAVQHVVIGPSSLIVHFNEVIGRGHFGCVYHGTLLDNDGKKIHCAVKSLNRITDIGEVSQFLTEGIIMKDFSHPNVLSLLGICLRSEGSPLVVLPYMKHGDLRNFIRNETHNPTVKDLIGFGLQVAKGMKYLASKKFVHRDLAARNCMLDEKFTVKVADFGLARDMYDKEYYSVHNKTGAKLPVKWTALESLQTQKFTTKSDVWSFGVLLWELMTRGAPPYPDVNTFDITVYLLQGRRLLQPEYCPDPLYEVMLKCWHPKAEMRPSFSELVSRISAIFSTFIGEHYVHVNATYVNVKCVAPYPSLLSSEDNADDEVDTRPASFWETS

With `N#CCCNc1nccc(-c2cn(CC(F)F)nc2-c2cnc3[nH]ccc3c2)n1` [RAFi, PF-04880594], the inhibition at 1 µM at RPS6KA3 (RSK2) was -9%; on MAPK1/ERK2, 14%; on MAPK8 (JNK1) it was 31%; at TYRO3 (RSE), 10%; at MAPK12 (p38 gamma), 2%; at IGF1R it was 9%. Besides, the inhibition at 1 µM was 7% at ACVR1B (ALK4); 7% at SGK (SGK1); 101% on MAPK9 (JNK2); 5% on EGFR (ErbB1) L861Q; 7% on MET M1250T; -1% at SGKL (SGK3). Further, the inhibition at 1 µM at NEK7 was 23%; on EGFR (ErbB1), 5%; at MAPK14 (p38 alpha)** it was 93%; on PKN1 (PRK1), -10%; at CHEK2 (CHK2), 7%; on KIT, 36%. The inhibition at 1 µM was 37% at PRKD1 (PKC mu), 16% on YES1, -2% at EPHA2 and 3% on EPHB2.

The values above are taken from PMC3382171 (PLoS ONE, 2012).
